# Test results reported in US9937183B2, “Antimicrobial compounds and methods of making and using the same” (priority 2013, dated 2018).
# Like-named read-outs stand apart in the source and are kept apart here.
# How the values were obtained:
# Type in all cases: cell-based
# E. coli MG1655 parent = assay: MIC, microtiter-based liquid assay (CLSI); details: Escherichia coli
# A. baumannii 1705943 = assay: MIC, microtiter-based liquid assay (CLSI); details: Acinetobacter baumannii
# P. aeruginosa 1705904 = assay: MIC, microtiter-based liquid assay (CLSI); details: Pseudomonas aeruginosa, MDR strain
# B. pseudomallei = assay: microbe, parasite or virus in culture; details: Burkholderia pseudomallei; for MIC50: read-out: B. pseudomallei MIC50; for MIC90: read-out: B. pseudomallei MIC90; for MIC: read-out: B. pseudomallei MIC Range
# K. pneumoniae 1705966 = assay: MIC, microtiter-based liquid assay (CLSI); details: Klebsiella pneumoniae
# B. anthracis = assay: microbe, parasite or virus in culture; details: Bacillus anthracis; for MIC50: read-out: B. anthracis MIC50; for MIC90: read-out: B. anthracis MIC90; for MIC: read-out: B. anthracis MIC Range
# P. aeruginosa ATCC27853 = assay: MIC, microtiter-based liquid assay (CLSI); details: Pseudomonas aeruginosa
# F. tularensis = assay: microbe, parasite or virus in culture; details: Francisella tularensis; for MIC50: read-out: F. tularensis MIC50; for MIC90: read-out: F. tularensis MIC90; for MIC: read-out: F. tularensis MIC Range
# E. coli ATCC25922 = assay: MIC, microtiter-based liquid assay (CLSI); details: Escherichia coli
# B. mallei = assay: microbe, parasite or virus in culture; details: Burkholderia mallei; for MIC50: read-out: B. mallei MIC50; for MIC90: read-out: B. mallei MIC90; for MIC: read-out: B. mallei MIC Range
# [1] = system: E. faecium A6349 VanA + LNZ-R; assay: MIC, microtiter-based liquid assay (CLSI); details: Enterococcus faecium
# [2] = system: S. pneumoniae 02J1175 Mef(A); assay: MIC, microtiter-based liquid assay (CLSI); details: Streptococcus pneumoniae
# E. coli 1705878 = assay: MIC, microtiter-based liquid assay (CLSI); details: Escherichia coli, MDR strain
# S. aureus 11540 MRSA = assay: MIC, microtiter-based liquid assay (CLSI); details: Staphylococcus aureus
# E. coli CAG12184 TolC = assay: MIC, microtiter-based liquid assay (CLSI); details: Escherichia coli, CAG12184TOLC
# P. aeruginosa 1705886 = assay: MIC, microtiter-based liquid assay (CLSI); details: Pseudomonas aeruginosa
# K. pneumoniae 1705949 = assay: MIC, microtiter-based liquid assay (CLSI); details: Klebsiella pneumoniae, MDR strain
# A. baumannii 1705936 = assay: MIC, microtiter-based liquid assay (CLSI); details: Acinetobacter baumannii, MDR strain
# Y. pestis = assay: microbe, parasite or virus in culture; details: Yersinia pestis; for MIC50: read-out: Y. pestis MIC50; for MIC90: read-out: Y. pestis MIC90; for MIC: read-out: Y. pestis MIC Range
# [3] = ATCC25922, read-out: MIC E. coli ATCC25922 + 50% HS
# [4] = ATCC25922, read-out: MIC E. coli ATCC25922
smiles,measurement,setting,value
COC[C@H](N)CCCc1cc(Cl)c(F)c(-c2cc3cn(-c4ccc(CNCCCNC(=N)N)cc4)c(=O)nc3[nH]2)c1 [Compound 6],MIC,E. coli MG1655 parent,0.25 µg/mL
same,MIC,A. baumannii 1705943,0.25 µg/mL
same,MIC,P. aeruginosa 1705904,8 µg/mL
same,MIC50,B. pseudomallei,8 µg/mL
same,MIC90,B. pseudomallei,16 µg/mL
same,MIC,B. pseudomallei,1 to 32 µg/mL
same,MIC,K. pneumoniae 1705966,0.5 µg/mL
same,MIC50,B. anthracis,0.5 µg/mL
same,MIC90,B. anthracis,0.5 µg/mL
same,MIC,B. anthracis,0.06 to 1 µg/mL
same,MIC,P. aeruginosa ATCC27853,8 µg/mL
same,MIC50,F. tularensis,≤ 0.03 µg/mL
same,MIC90,F. tularensis,0.06 µg/mL
same,MIC,F. tularensis,0.03 to 1 µg/mL
same,MIC,E. coli ATCC25922; [3],0.25 µg/mL
same,MIC,E. coli ATCC25922; [4],0.5 µg/mL
same,MIC50,B. mallei,≤ 0.03 µg/mL
same,MIC90,B. mallei,0.12 µg/mL
same,MIC,B. mallei,0.03 to 0.5 µg/mL
same,MIC,[1],4 µg/mL
same,MIC,[2],0.25 µg/mL
same,MIC,E. coli 1705878,1 µg/mL
same,MIC,S. aureus 11540 MRSA,0.25 µg/mL
same,MIC,E. coli CAG12184 TolC,0.25 µg/mL
same,MIC,P. aeruginosa 1705886,4 µg/mL
same,MIC,K. pneumoniae 1705949,2 µg/mL
same,MIC,A. baumannii 1705936,4 µg/mL
same,MIC50,Y. pestis,0.25 µg/mL
same,MIC90,Y. pestis,> 16 µg/mL
C=C[C@H](NCCCNC(=N)N)c1ccc(-n2cc3cc(-c4cc(CCC[C@H](C)N)cc(Cl)c4F)[nH]c3nc2=O)cc1 [Compound 10],MIC,E. coli MG1655 parent,0.25 µg/mL
same,MIC,A. baumannii 1705943,0.25 µg/mL
same,MIC,P. aeruginosa 1705904,4 µg/mL
same,MIC50,B. pseudomallei,1 µg/mL
same,MIC90,B. pseudomallei,2 µg/mL
same,MIC,B. pseudomallei,0.25 to 8 µg/mL
same,MIC,K. pneumoniae 1705966,0.25 µg/mL
same,MIC50,B. anthracis,0.12 µg/mL
same,MIC90,B. anthracis,0.25 µg/mL
same,MIC,B. anthracis,0.03 to 0.25 µg/mL
same,MIC,P. aeruginosa ATCC27853,4 µg/mL
same,MIC50,F. tularensis,≤ 0.03 µg/mL
same,MIC90,F. tularensis,0.06 µg/mL
same,MIC,F. tularensis,0.03 to 4 µg/mL
same,MIC,E. coli ATCC25922; [3],0.25 µg/mL
same,MIC,E. coli ATCC25922; [4],0.25 µg/mL
same,MIC50,B. mallei,≤ 0.03 µg/mL
same,MIC90,B. mallei,0.12 µg/mL
same,MIC,B. mallei,0.03 to 0.25 µg/mL
same,MIC,[1],0.5 µg/mL
same,MIC,[2],0.25 µg/mL
same,MIC,E. coli 1705878,0.5 µg/mL
same,MIC,S. aureus 11540 MRSA,0.25 µg/mL
same,MIC,E. coli CAG12184 TolC,0.25 µg/mL
same,MIC,P. aeruginosa 1705886,2 µg/mL
same,MIC,K. pneumoniae 1705949,0.5 µg/mL
same,MIC,A. baumannii 1705936,2 µg/mL
same,MIC50,Y. pestis,≤ 0.03 µg/mL
same,MIC90,Y. pestis,0.06 µg/mL
same,MIC,Y. pestis,0.03 to 0.25 µg/mL
C=C[C@@H](NCCCNC(=N)N)c1ccc(-n2cc3cc(-c4cc(CCC[C@H](C)N)cc(Cl)c4F)[nH]c3nc2=O)cc1 [Compound 11],MIC,E. coli MG1655 parent,0.25 µg/mL
same,MIC,A. baumannii 1705943,0.25 µg/mL
same,MIC,P. aeruginosa 1705904,8 µg/mL
same,MIC50,B. pseudomallei,1 µg/mL
same,MIC90,B. pseudomallei,4 µg/mL
same,MIC,B. pseudomallei,0.25 to 8 µg/mL
same,MIC,K. pneumoniae 1705966,1 µg/mL
same,MIC50,B. anthracis,0.25 µg/mL
same,MIC90,B. anthracis,0.5 µg/mL
same,MIC,B. anthracis,0.12 to 0.5 µg/mL
same,MIC,P. aeruginosa ATCC27853,4 µg/mL
same,MIC50,F. tularensis,0.06 µg/mL
same,MIC90,F. tularensis,0.25 µg/mL
same,MIC,F. tularensis,0.03 to 4 µg/mL
same,MIC,E. coli ATCC25922; [3],0.5 µg/mL
same,MIC,E. coli ATCC25922; [4],0.25 µg/mL
same,MIC50,B. mallei,≤ 0.03 µg/mL
same,MIC90,B. mallei,0.12 µg/mL
same,MIC,B. mallei,0.03 to 0.25 µg/mL
same,MIC,[1],4 µg/mL
same,MIC,[2],2 µg/mL
same,MIC,E. coli 1705878,0.5 µg/mL
same,MIC,S. aureus 11540 MRSA,0.5 µg/mL
same,MIC,E. coli CAG12184 TolC,0.25 µg/mL
same,MIC,P. aeruginosa 1705886,4 µg/mL
same,MIC,K. pneumoniae 1705949,8 µg/mL
same,MIC,A. baumannii 1705936,1 µg/mL
same,MIC50,Y. pestis,≤ 0.03 µg/mL
same,MIC90,Y. pestis,0.12 µg/mL
same,MIC,Y. pestis,0.03 to 0.5 µg/mL
